Data from publication PMC7979765, “trans-Translation inhibitors bind to a novel site on the ribosome and clear Neisseria gonorrhoeae in vivo” (Nature Communications, 2021).
Where two headings read alike, the source gives them in different places.

Assay: Pharmacokinetic analyses in mice (PO suspension, IV, SC)
Format: in vivo, mouse
Conditions: in vivo
Method: Female CD-1 mice as above were fasted for 2 h prior, and 4 h after dosing. […] […], 3 mice from each group were euthanized by CO2 inhalation, blood was collected by cardiac puncture into K2EDTA collection tubes, and protein was precipitated and analysed by LC/MS-MS for plasma concentrations of MBX-4132. Data were analysed using WinNonLin.
[…] At 0.083, 0.5, 1, 4, 8 and 24 h post dose, blood was collected from 3 mice/group by tail vein or facial bleed into K2EDTA collection tubes, and protein was precipitated and analysed by LC/MS-MS for plasma concentrations of MBX-4132. Sampling was performed serially, with each mouse contributing sample at all time points. Data were analysed using WinNonLin.

[1] = female, CD-1, mouse, sc, 10 mg/kg, SC (10 mg/kg), mean of 3 animals, read-out: MBX 4132 Concentrations in Mouse Plasma, Mean
[2] = female, CD-1, mouse, sc, 10 mg/kg, SC (10 mg/kg), individual animals, read-out: MBX 4132 Concentrations in Mouse Plasma
[3] = female, CD-1, mouse, sc, 25 mg/kg, SC (25 mg/kg), individual animals, read-out: MBX 4132 Concentrations in Mouse Plasma
[4] = female, CD-1, mouse, sc, 25 mg/kg, SC (25 mg/kg), mean of 3 animals, read-out: MBX 4132 Concentrations in Mouse Plasma, Mean
[5] = mouse, iv, 10 mg/kg, IV (10 mg/kg), individual animals, read-out: MBX 4132 Concentrations in Mouse Plasma
[6] = mouse, iv, 10 mg/kg, IV (10 mg/kg), mean of 3 animals, read-out: MBX 4132 Concentrations in Mouse Plasma, Mean
[7] = mouse, po, 10 mg/kg, PO (10 mg/kg), mean of 3 animals, read-out: MBX 4132 Concentrations in Mouse Plasma, Mean
[8] = mouse, po, 10 mg/kg, PO (10 mg/kg), individual animals, read-out: MBX 4132 Concentrations in Mouse Plasma

For O=C(Nc1nnc(-c2ccc(F)cc2)o1)N1CCc2ccccc2C1 [MBX 4132], the concentration at 8 h (female, CD-1, mouse, po, 10 mg/kg, PO (10 mg/kg susp.), mean of 3 animals, read-out: MBX 4132 Concentrations in Mouse Plasma, Mean) was 9920 ng/mL, the concentration at 24 h (female, CD-1, mouse, po, 10 mg/kg, PO (10 mg/kg susp.), individual animals, read-out: MBX 4132 Concentrations in Mouse Plasma) was < 62.5 ng/mL and the concentration at 0.083 h (female, CD-1, mouse, po, 10 mg/kg, PO (10 mg/kg), mean of 3 animals, read-out: MBX 4132 Concentrations in Mouse Plasma, Mean) was 1260 ng/mL. It also gave a concentration at 0.083 h [1] of 786 ng/mL, a concentration at 0.5 h [2] of 3430 ng/mL and a concentration at 0.5 h [1] of 3780 ng/mL. The concentration at 1 h [2] was 3480 ng/mL, the concentration at 1 h [1] was 3350 ng/mL and the concentration at 4 h [2] was 3280 ng/mL. It also gave a concentration at 4 h [1] of 2850 ng/mL, a concentration at 8 h [2] of 2000 ng/mL and a concentration at 8 h [1] of 2430 ng/mL. For the same compound, the concentration at 24 h [2] was 599 ng/mL, the concentration at 24 h [1] was 608 ng/mL and the concentration at 0.083 h [3] was 1170 ng/mL. It also gave a concentration at 0.083 h [4] of 1510 ng/mL, a concentration at 0.5 h [4] of 5010 ng/mL and a concentration at 1 h [3] of 3020 ng/mL. For the same compound, the concentration at 1 h [4] was 4580 ng/mL, the concentration at 4 h [3] was 2380 ng/mL and the concentration at 4 h [4] was 3010 ng/mL. The concentration at 8 h [3] was 3420 ng/mL, the concentration at 8 h [4] was 4040 ng/mL and the concentration at 24 h [3] was 1540 ng/mL. It also gave a concentration at 24 h [4] of 1800 ng/mL, a concentration at 0.083 h [5] of 74600 ng/mL and a concentration at 0.083 h [6] of 66300 ng/mL. It also gave a concentration at 0.5 h [5] of 30600 ng/mL, a concentration at 0.5 h [6] of 32900 ng/mL and a concentration at 1 h [5] of 21000 ng/mL. For the same compound, the concentration at 1 h [6] was 21400 ng/mL, the concentration at 4 h [5] was 7790 ng/mL and the concentration at 4 h [6] was 7590 ng/mL. The concentration at 8 h [5] was 3920 ng/mL, the concentration at 8 h [6] was 3730 ng/mL and the concentration at 0.5 h [7] was 1360 ng/mL. The concentration at 1 h [8] was 1090 ng/mL, the concentration at 1 h [7] was 1440 ng/mL and the concentration at 4 h [8] was 1680 ng/mL. It also gave a concentration at 4 h [7] of 2170 ng/mL, a concentration at 8 h [8] of 4350 ng/mL and a concentration at 8 h [7] of 5110 ng/mL. It also gave a concentration at 24 h [7] of 58 ng/mL.
